Test results published in the NIST ThermoML archive (doi:10.1016/j.tca.2006.02.034).
Numbers after ± are expanded uncertainties.

Details: Crystal; Adiabatic calorimetry

Compound `CCCC[n+]1ccn(C)c1.O=S(=O)([N-]S(=O)(=O)C(F)(F)F)C(F)(F)F` has a Triple point temperature of 270.22 ± 0.05 K.
